Key:
[1] = system: HepG2 human hepatoma cells; test: Mitotoxicity on HepG2 cells (galactose medium, crystal violet); format: cell-based; details: 48 h, D-galactose medium, serum-starved
Procedure: The cytotoxic and mitotoxic activity of MMV1794206 on HepG2 human hepatoma cells was evaluated using an established protocol. […] Monepantel and moxidectin (prepared in the same manner as the test compound) were included as reference compounds. Two compounds, doxorubicin (cytotoxic; Sigma-Aldrich, USA) and M-666 (mitotoxic; [57]), were used as positive controls at a single concentration of 10 µM. A solution of DMEM* + 0.25% (v/v) DMSO was used as a negative control. HepG2 cells were seeded into wells of a 96-well plate in 80 µl of DMEM* (at 1 × 10^5 cells per well) and allowed to adhere for 16 h at 37 °C and 5% (v/v) CO2 at > 90% humidity prior to incubation with individual compounds, at a final volume of 100 µl. For the assessment of mitochondrial toxicity, cells were starved of serum (DMEM* without FBS) for 4 h prior to the incubation with compounds [60, 61]. Following 48 h of incubation with compounds, cell viability was determined by crystal violet staining. The absorbance (595 nm) of treated cells was normalised using the negative controls (viability: 100%) to calculate the cell viability. All compounds and controls were tested in triplicate. […]

[2] = system: exsheathed third-stage larvae (xL3s) of Haemonchus contortus; test: Primary screen, H. contortus larval development and phenotype (microscopy); details: 20 µM, 168 h
Procedure: An established high-throughput phenotypic screening assay was used to test the anthelmintic activity of compounds on H. contortus xL3s. Compounds were assessed for motility inhibition at a concentration of 20 µM in LB*. […] A solution of LB* + 1% (v/v) DMSO was used as a negative control. Test compounds were distributed amongst one flat-bottom, 384-well microplate (cat no. 3860; Corning, Corning, NY, USA). Eighty xL3s of H. contortus in 20 µl of LB* were added to each well to give a final volume of 40 µl. The plate was then placed in a CO2 incubator (10% [v/v] CO2, 38 °C, > 90% humidity). At 90 h, worm activity was captured using a WMicroTracker ONE unit (Phylumtech, Sunchales, Santa Fe, Argentina). Over a period of 15 min, disturbance of an infrared beam in individual wells was recorded as a worm ‘activity count’. Activity counts were then normalised to the positive and negative controls using the GraphPad Prism program (v.9.1.0 GraphPad Software, San Diego, CA, USA). The screening plate was then returned to the incubator (10% [v/v] CO2, 38 °C, > 90% humidity) for an additional 72 h. At 168 h, worms were fixed with 40 µl of Lugol solution (Sigma-Aldrich, St. Louis, MO, USA). Compounds were then assessed (microscopically) for inhibition of larval development and/or induction of a non-wild-type phenotype in H. contortus worms. […] The performance of the assay was monitored using the Z′-factor [58] calculated using data for the negative (DMSO) and positive (M-666) control compounds on individual plates.

C. elegans young adults = test: C. elegans dose-response assay, motility; set-up: species or system Caenorhabditis elegans
Procedure: The dose–response assay for C. elegans followed a well-established protocol and was employed to evaluate the potency of hit compounds against this nematode. Test and positive-control compounds as well as negative controls were prepared in 96-well microplates (cf.). One hundred C. elegans in 50 μl of LB* were added to each well to give a final volume of 100 μl. Plates were then placed in an incubator at 20 °C for 40 h. At 40 h, worm activity was captured using a WMicroTracker ONE unit. Raw activity counts for each well were normalised to the negative controls. The compound concentrations were log10-transformed and fitted using a variable-slope four-parameter equation, using the ordinary least squares fit model, employing GraphPad Prism (v.9.1.0). A one-way ANOVA with a Tukey multiple comparison test or an unpaired t-test was used to establish statistically significant differences in larval motility.

In the case of `CC(F)c1ncnc(NCCc2ccc(OC(F)(F)F)cc2)c1Cl` (stereo not drawn) [MMV1794206, flufenerim], the “half-maximal mitotoxic concentration (MC50)” value [1] is reported as less than 0.7 µM, the Abnormal phenotype ([2]; H. contortus larvae) is reported as “Cur” and the “Induction of an abnormal phenotype (in words)” value ([2]; H. contortus larvae) is reported as “induced an abnormal phenotype”. For the same compound, the inhibition at 20 µM ([2]; Haemonchus contortus, H. contortus, read-out: Larval development inhibition, %) was 100%, the “Maximum motility inhibition (MMI), C. elegans” value (C. elegans young adults; 40 h of incubation) was 100% and the IC50 (C. elegans young adults; Caenorhabditis elegans, 40 h, read-out: IC50, C. elegans young adult motility, 40 h of incubation) was 220 nM.

Reference: paper PMC10938758, “A phenotypic screen of the Global Health Priority Box identifies an insecticide with anthelmintic activity” (Parasites & Vectors, 2024)
